# Test results as given in patent publication US7858621B2 (Amorepacific Corporation, priority 2006, dated 2010).
# Read-outs that look alike come from different tables or passages of the source.
# Assays:
# [1] = Metabolic stability test in human intestinal microsomes; assay type: in vitro ADME; details: 5 μg/mL, 1 mg/mL protein, 2 hr reaction time
# Protocol: (§1) 1) Metabolic Stability Test
# (§2) Diluted sample (final 5 μg/mL in 0.1 M potassium phosphate buffer, pH 7.4) was pre-incubated with cofactors (glucose-6-phosphate 3.3 mM, NADPH 1.3 mM, MgCl2 0.16 mM, glucose-6-phosphate dehydrogenase 0.4 U/mL final) and enzyme reaction was initiated with the addition of human intestinal (1 mg/mL protein) or rat liver microsomes (0.5 mg/mL protein). Reaction was terminated with 2× volume of cold acetonitrile after 1 min (initial point) or 30 min (reacted sample) incubation. In case of human intestinal microsomes, 2 hr reaction time was employed. Reaction mixture was undergone extraction in shaking bath over 20 min, after which resultant supernatant was separated by centrifugation. Area of parent compound peak was analyzed in the supernatant using HPLC-UV method and the extent of metabolism was shown as the decreased compound peak area (%) from initial point.
# [2] = molecular target: T1, vanilloid receptor (Rattus norvegicus, UniProt O35433); test: 45Ca influx test in cultured neonatal rat DRG neurons, inhibition of capsaicin response; assay type: cell-based
# T1 construct: DRG nerve cells from the primary culture of 2 days were equilibrated; endogenous in cells; host or cells: primary culture of dorsal root ganglion neurons from neonatal SD rats
# Summary of the method: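 Neonatal SD rat DRG neurons, cultured 2 days with NGF (200 ng/ml) and Ara-C, were washed in HEPES (10 mM, pH 7.4)-buffered Ca/Mg-free HBSS. Test compound was added with capsaicin (final 0.5 μM) and 45Ca (10 μCi/ml) for 10 min at room temperature; 45Ca uptake counted by scintillation after SDS elution.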
# [3] = Metabolic stability test in rat liver microsomes; assay type: in vitro ADME; details: 5 μg/mL, 0.5 mg/mL protein, 30 min incubation
# Protocol: as §1, §2
# [4] = PK study in rats, single oral administration; assay type: in vivo; parameters: AUC: concentration or dose not given beside the values; details: rat, plasma
# Protocol: Pharmacokinetics of compounds in rats were analyzed using the following experiment. Rats were fasted overnight prior to administration and until approximately 4 hours after administration. Rats were given a single oral administration of compound at same dose. Administration volume was 10 ml/kg. Blood samples were collected from the retro-orbital sinus at various times over the following 7 hrs. Immediately after each collection, plasmas were separated from blood cells by centrifugation and stored at −20° C. until the analysis was performed. The plasma samples were analyzed using a reverse phase high-performance chromatography (HPLC) method.
# [5] = neonatal rat DRG neurons, capsaicin 0.5 μM, 45Ca influx, read-out: Antagonist Calcium Uptake Test (IC50)
# [6] = Table 3, unit inferred, read-out: IC50
# T1 sequence (O35433 whole entry): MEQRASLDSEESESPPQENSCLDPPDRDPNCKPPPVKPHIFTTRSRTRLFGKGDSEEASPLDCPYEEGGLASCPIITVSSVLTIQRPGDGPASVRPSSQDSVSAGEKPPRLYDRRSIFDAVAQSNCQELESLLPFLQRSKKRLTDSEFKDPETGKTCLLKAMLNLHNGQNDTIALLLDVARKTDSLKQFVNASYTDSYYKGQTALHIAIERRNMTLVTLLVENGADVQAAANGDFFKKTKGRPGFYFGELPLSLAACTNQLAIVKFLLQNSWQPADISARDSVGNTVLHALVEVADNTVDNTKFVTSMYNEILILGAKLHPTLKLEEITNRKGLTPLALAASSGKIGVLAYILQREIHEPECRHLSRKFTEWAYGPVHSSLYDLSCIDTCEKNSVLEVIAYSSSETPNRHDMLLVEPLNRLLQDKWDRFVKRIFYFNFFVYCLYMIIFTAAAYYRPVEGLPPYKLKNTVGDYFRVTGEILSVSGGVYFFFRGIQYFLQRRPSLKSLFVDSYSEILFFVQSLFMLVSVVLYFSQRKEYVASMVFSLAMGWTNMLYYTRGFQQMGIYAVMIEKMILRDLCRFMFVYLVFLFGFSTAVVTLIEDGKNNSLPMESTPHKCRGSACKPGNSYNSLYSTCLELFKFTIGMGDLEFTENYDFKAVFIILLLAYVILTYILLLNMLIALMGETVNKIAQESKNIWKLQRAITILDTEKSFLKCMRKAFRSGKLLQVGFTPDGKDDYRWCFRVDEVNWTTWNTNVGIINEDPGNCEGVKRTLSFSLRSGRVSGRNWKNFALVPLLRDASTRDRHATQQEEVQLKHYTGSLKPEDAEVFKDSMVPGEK
smiles,measurement,setting,value
"C#Cc1cc(CNC(=O)/C=C/c2ccc(C(F)(F)F)nc2OC)cc(F)c1NS(C)(=O)=O [Example 42, N-(3-Ethynyl-5-fluoro-4-methanesulfonylamino-benzyl)-3-(2-methoxy-6-trifluoromethyl-pyridin-3-yl)-acrylamide]",Stability HIM (% metabolized in human intestinal microsomes),[1],17.1%
same,IC50,[2]; [5],96 nM
same,Stability RLM (% metabolized in rat liver microsomes),[3],17.1%
"COCCNc1nc(C(F)(F)F)ccc1/C=C/C(=O)NCc1ccc(NS(C)(=O)=O)c(F)c1 [Example 45, N-(3-Fluoro-4-methanesulfonylamino-benzyl)-3-[2-(2-methoxy-ethylamino)-6-trifluoromethyl-pyridin-3-yl]-acrylamide]",Stability HIM (% metabolized in human intestinal microsomes),[1],8.0%
same,IC50,[2]; [5],510 nM
same,Stability RLM (% metabolized in rat liver microsomes),[3],10%
"C#Cc1cc(CNC(=O)/C=C/c2ccc(C(F)(F)F)nc2)cc(F)c1NS(C)(=O)=O [Example 57, N-(3-Ethynyl-5-fluoro-4-methanesulfonylamino-benzyl)-3-(6-trifluoromethyl-pyridin-3-yl)-acrylamide]",AUC,[4],56500 ng·h/mL
same,Cmax,[4],2200 ng/mL
same,Tmax,[4],0.833 h
same,half-life,[4],3.95 h
same,IC50,[2]; [6],> 10000 nM
same,IC50,[2]; [5],> 10000 nM
"C#Cc1cc(CNC(=O)/C=C/c2ccc(C(F)(F)F)nc2NCCOC)cc(F)c1NS(C)(=O)=O [Example 65, N-(3-Ethynyl-5-fluoro-4-methanesulfonylamino-benzyl)-3-[2-(2-methoxy-ethylamino)-6-trifluoromethyl-pyridin-3-yl]-acrylamide]",Stability HIM (% metabolized in human intestinal microsomes),[1],14.0%
same,IC50,[2]; [5],89 nM
same,Stability RLM (% metabolized in rat liver microsomes),[3],15.3%
"C#Cc1cc(CNC(=O)/C=C/c2ccc(C(F)(F)F)nc2OCCOC)cc(F)c1NS(C)(=O)=O [Example 75, N-(3-Ethynyl-5-fluoro-4-methanesulfonylamino-benzyl)-3-[2-(2-methoxy-ethoxy)-6-trifluoromethyl-pyridin-3-yl]-acrylamide]",Stability HIM (% metabolized in human intestinal microsomes),[1],17.0%
same,IC50,[2]; [5],370 nM
same,Stability RLM (% metabolized in rat liver microsomes),[3],17.0%
"CCCCNc1nc(C(F)(F)F)ccc1/C=C/C(=O)NCc1cc(C)c(NS(C)(=O)=O)c(F)c1 [Example 188, N-(3-Fluoro-4-methanesulfonylamino-5-methyl-benzyl)-3-(2-butylamino-6-trifluoromethyl-pyridin-3-yl)-acrylamide]",Stability HIM (% metabolized in human intestinal microsomes),[1],1.6%
same,IC50,[2]; [5],87 nM
same,Stability RLM (% metabolized in rat liver microsomes),[3],2.7%
"C#Cc1cc(CNC(=O)/C=C/c2ccc(C(F)(F)F)nc2CCC)cc(F)c1NS(C)(=O)=O [Example 206, N-(3-Ethynyl-5-fluoro-4-methanesulfonylamino-benzyl)-3-(2-propyl-6-trifluoromethyl-pyridin-3-yl)-acrylamide]",AUC,[4],25900 ng·h/mL
same,Cmax,[4],5500 ng/mL
same,Tmax,[4],3.5 h
same,half-life,[4],1.42 h
same,IC50,[2]; [5],40 nM
"CCCNc1nc(C(F)(F)F)ccc1/C=C/C(=O)NCc1cc(F)c(NS(C)(=O)=O)c(F)c1 [Example 222, N-(3,5-Difluoro-4-methanesulfonylamino-benzyl)-3-(2-propylamino-6-trifluoromethyl-pyridin-3-yl)-acrylamide]",Stability HIM (% metabolized in human intestinal microsomes),[1],0%
same,IC50,[2]; [5],49 nM
same,Stability RLM (% metabolized in rat liver microsomes),[3],0%
"CCCc1nc(C(F)(F)F)ccc1/C=C/C(=O)NCc1ccc(NS(C)(=O)=O)c(Cl)c1 [Example 253, N-(3-Chloro-4-methanesulfonylamino-benzyl)-3-(2-propyl-6-trifluoromethyl)-pyridin-3-yl-acrylamide]",Stability HIM (% metabolized in human intestinal microsomes),[1],3.2%
same,IC50,[2]; [5],500 nM
same,Stability RLM (% metabolized in rat liver microsomes),[3],0%
"CC(C)Nc1nc(C(F)(F)F)ccc1/C=C/C(=O)NCc1ccc(NS(=O)(=O)C(F)(F)F)cc1 [Example 270, 3-(2-Isopropylamino-6-trifluoromethyl-pyridin-3-yl)-N-(4-trifluoromethanesulfonylamino-benzyl)-acrylamide]",IC50,[2]; [5],> 10000 nM
CCC/C(=C/C(=O)NCc1ccc(NS(C)(=O)=O)c(Cl)c1)c1ccc(C(F)(F)F)nc1CCC [Example 271],IC50,[2]; [5],1300 nM
CCC/C(=C\C(=O)NCc1ccc(NS(C)(=O)=O)c(Cl)c1)c1ccc(C(F)(F)F)nc1CCC [Example 272],IC50,[2]; [5],740 nM
"CCCCc1nc(C(F)(F)F)ccc1C#CC(=O)NCc1cc(C)c(NS(C)(=O)=O)c(F)c1 [Example 273, 3-(2-Butyl-6-trifluoromethyl-pyridin-3-yl)-propynoic acid 3-fluoro-4-methanesulfonylamino-5-methyl-benzylamide]",IC50,[2]; [5],840 nM
"CCCCc1nc(C(F)(F)F)ccc1C#CC(=O)N[C@H](C)c1ccc(NS(C)(=O)=O)c(F)c1 [Example 274, 3-(2-Butyl-6-trifluoromethyl-pyridin-3-yl)-propynoic acid [1-(3-fluoro-4-methane sulfonylamino-phenyl)-ethyl]-amide]",IC50,[2]; [5],1200 nM
C#Cc1cc(CNC(=O)/C=C(/CCC)c2ccc(C(F)(F)F)nc2CCC)cc(F)c1NS(C)(=O)=O [Example 275],IC50,[2]; [5],310 nM
C#Cc1cc(CNC(=O)/C=C(\CCC)c2ccc(C(F)(F)F)nc2CCC)cc(F)c1NS(C)(=O)=O [Example 276],IC50,[2]; [5],240 nM
"CCC/C(=C/C(=O)N[C@H](C)c1cc(F)c(NS(C)(=O)=O)c(F)c1)c1ccc(C(F)(F)F)nc1CCC [Example 277, (Z)-3-(2-Propyl-6-trifluoromethyl-pyridin-3-yl)-hex-2-enoic acid [1-(3,5-difluoro-4-methanesulfonylamino-phenyl)-ethyl]-amide]",IC50,[2]; [5],320 nM
"CCC/C(=C\C(=O)N[C@H](C)c1cc(F)c(NS(C)(=O)=O)c(F)c1)c1ccc(C(F)(F)F)nc1CCC [Example 278, (E)-3-(2-Propyl-6-trifluoromethyl-pyridin-3-yl)-hex-2-enoic acid [1-(3,5-difluoro-4-methanesulfonylamino-phenyl)-ethyl]-amide]",IC50,[2]; [5],160 nM
"O=C(/C=C/c1ccc(C(F)(F)F)nc1CCc1ccccc1)NCc1ccc(NS(=O)(=O)C(F)(F)F)cc1 [Example 279, 3-(2-Phenethyl-6-trifluoromethyl-pyridin-3-yl)-N-(4-trifluoromethanesulfonylamino-benzyl)-acrylamide]",IC50,[2]; [5],3900 nM
CC(C)(C)c1ccc(/C=C/C(=O)NCc2ccc(NS(C)(=O)=O)c(F)c2)cn1 [Examples 1],IC50,[2]; [5],1300 nM
CC(C)(C)c1ccc(/C=C/C(=O)NCc2ccc(NS(C)(=O)=O)c(Cl)c2)cn1 [Examples 2],IC50,[2]; [5],1300 nM
C=Cc1cc(CNC(=O)/C=C/c2ccc(C(C)(C)C)nc2)ccc1NS(C)(=O)=O [Examples 4],IC50,[2]; [5],220 nM
COc1nc(C(C)(C)C)ccc1/C=C/C(=O)NCc1ccc(NS(C)(=O)=O)c(F)c1 [Examples 9],IC50,[2]; [5],400 nM
C=Cc1cc(CNC(=O)/C=C/c2ccc(C(C)(C)C)cc2)cc(F)c1NS(C)(=O)=O [Examples 16],Cmax,[4],< 100 ng/mL
same,IC50,[2]; [6],47 nM
CS(=O)(=O)Nc1ccc(CNC(=O)/C=C/c2ccc(Cl)nc2)cc1F [Examples 16],IC50,[2]; [5],> 10000 nM
C=Cc1cc(CNC(=O)/C=C/c2ccc(C(C)(C)C)cc2N2CCOCC2)cc(F)c1NS(C)(=O)=O [Examples 22],Cmax,[4],< 100 ng/mL
CS(=O)(=O)Nc1c(F)cc(CNC(=O)/C=C/c2ccc(C(F)(F)F)nc2N2CCOCC2)cc1C(F)(F)F [Examples 22],IC50,[2]; [5],3300 nM
C#Cc1cc(CNC(=O)/C=C/c2ccc(N3CCOCC3)nc2)cc(F)c1NS(C)(=O)=O [Examples 23],IC50,[2]; [5],> 10000 nM
CC(C)(C)c1ccc(OCC(=O)NCc2ccc(NS(C)(=O)=O)c(F)c2)c(Br)n1 [Examples 28],IC50,[2]; [5],1600 nM
C#Cc1cc(CNC(=O)COc2ccc(C(C)(C)C)nc2)cc(F)c1NS(C)(=O)=O [Examples 34],IC50,[2]; [5],> 10000 nM
C=Cc1cc(CNC(=O)/C=C/c2ccc(C(C)(C)C)cc2NC(C)C)cc(F)c1NS(C)(=O)=O [Examples 34],Cmax,[4],< 100 ng/mL
"C#Cc1cc(CNC(=O)/C=C/c2ccc(C(C)(C)C)cc2N2CCOCC2)cc(F)c1NS(C)(=O)=O [drawing 334, reference compound]",Stability HIM (% metabolized in human intestinal microsomes),[1],54.0%
same,IC50,"[2]; Table 2, unit inferred, read-out: IC50",860 nM
same,Stability RLM (% metabolized in rat liver microsomes),[3],12.8%
"C#Cc1cc(CNC(=O)/C=C/c2ccc(C(C)(C)C)cc2N2CCOCC2)cc(F)c1NS(C)(=O)=O [drawing 350, reference compound]",AUC,[4],706 ng·h/mL
same,Cmax,[4],334 ng/mL
same,Tmax,[4],2 h
same,half-life,[4],0.932 h
same,IC50,[2]; [6],860 nM
